Results published in patent publication US12024510B2, “Pyrazolopyridine-diamides, their use as insecticide and processes for preparing the same” (PI INDUSTRIES LTD., priority 2017, dated 2024).

Tests used:
Type in all cases: in vivo
[1] = test system: Helicoverpa armigera; assay: Helicoverpa armigera diet incorporation method; conditions: third instar larvae, dead and moribund combined, 96 h after release
Summary of the method: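 500 ppm stock of compound milled with surfactant and zirconia beads to average particle size below 2 μm, dispersed in DM water, diluted as needed, and mixed into semi-synthetic diet at about 50° C. Single starved third-instar larvae per cell, held at 25° C., 70% RH; dead plus moribund larvae scored as percent mortality at 96 h.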

[2] = test system: Spodoptera litura; assay: Spodoptera litura diet incorporation method; conditions: third instar larvae, dead and moribund combined, 96 h after release
Procedure: Test Solutions were Prepared According to the Procedure Described Herein Below (500 PPM):
• 1. Eppendorf Vortex mixer (ThermoMixer C) and 1.5 mL Eppendorf tubes • 2. Zirconia (Zirconium-Yttrium) beads having diameter of 0.8 to 1.0 mm • 3. Microscope • 4. Beaker 100 mL • 5. Micro-pipette Reagents: • 1. Surfactant Solution • 2. De-mineralized (DM) Water • 1. Weigh 10 mg of the compound of the present invention to be tested in an Eppendorf Tube. • 2. Add 200 mg of the Surfactant Solution into the tube. • 3. Add 600 mg of Zirconia beads into the above mixture. • 4. Fix the tube in Eppendorf Vortex mixer and start vortexing at 2000 rpm. • 5. Mix on Vortex mixer for 30 minutes. After 30 minutes, observe the sample over a microscope at 400× resolution. • 6. If the Maximum particle size is more than 5 μm or average particle size is more than 2 μm or the particle size distribution is uneven, continue vortexing for another 30 minutes and again check the particle size using the microscope. Continue till the average particle size is below 2 microns. • 7. When the required particle size is achieved, add 1.0 mL DM water into the tube, close the cap, shake the tube thoroughly and transfer the contents, along with the beads, into a beaker. • 8. To rinse the tube, add another 1.0 mL of DM water into the tube, close the cap, shake well and transfer this into the same beaker. • 9. Repeat Step no. 8 one more time so that the tube is rinsed well and the compound of the present invention to be tested is transferred to the beaker. • 10. Add 16.8 mL of DM water into the beaker and stir well. • 11. The homogeneous dispersion can then be decanted into a glass vial, immediately, to separate the Zirconia beads. • 12. Immediately use this sample for biological testing. • 13. Further dilutions can be prepared by taking appropriate quantity of the aliquot of Step 10, immediately after stirring, and diluting as per requirement. The sample solution must be well mixed just before biological testing.
Diet incorporation method was used, in which semi-synthetic diet was incorporated into the test solution when the temperature is approximately 50° C. in the bioassay containers and stirred thoroughly for properly mixing and then was allowed to cool for 30 min. The solidified diet was cut into equal pieces, and then each piece was transferred in one cell in Bio-assay trays. A single third instar starved larva was released into each of these cells of bioassay trays and the tray was covered with the lid. The bio-assay trays were kept under laboratory conditions at a temperature of 25° C. and Relative Humidity of 70%. Observations on dead, moribund and live larvae were recorded at 96 h after the release of larvae. Percent mortality was calculated by combining dead and moribund larvae. The following compound numbers

[3] = test system: Plutella xylostella; assay: whole plant or invertebrate; conditions: foliar, cabbage leaf dip, second instar larvae, dead and moribund combined, 72 h after release
Summary of the method: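 Compounds milled with zirconia beads into surfactant dispersion (500 ppm stock), diluted in 0.01% Triton-X. Cabbage leaves dipped 10 s, shade-dried 20 min; one second-instar larva per cell, 25 °C, 70% RH. Mortality (dead plus moribund) scored at 72 h.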

Measured: mortality at 300 ppm

Cc1cc2ccnn2c(C(=O)NC(C)C)c1NC(=O)c1cc(OCC(F)(F)F)nn1-c1ncccc1Cl [Compound 12, 6-(1-(3-chloropyridin-2-yl)-3-(2,2,2-trifluoroethoxy)-1H-pyrazole-5-carboxamido)-N-isopropyl-5-methylpyrazolo[1,5-a]pyridine-7-carboxamide]
> 70%: all assays above

Cc1cc2ccnn2c(C(=O)NC2CC2)c1NC(=O)c1cc(OCC(F)(F)F)nn1-c1ncccc1Cl [Compound 13, 6-(1-(3-chloropyridin-2-yl)-3-(2,2,2-trifluoroethoxy)-1H-pyrazole-5-carboxamido)-N-cyclopropyl-5-methylpyrazolo[1,5-a]pyridine-7-carboxamide]
> 70%: all assays above

Cc1cc2ccnn2c(C(=O)NCC2CC2)c1NC(=O)c1cc(OCC(F)(F)F)nn1-c1ncccc1Cl [Compound 14, 6-(1-(3-chloropyridin-2-yl)-3-(2,2,2-trifluoroethoxy)-1H-pyrazole-5-carboxamido)-N-(cyclopropylmethyl)-5-methylpyrazolo[1,5-a]pyridine-7-carboxamide]
> 70%: all assays above

Cc1cc2ccnn2c(C(=O)NCC#N)c1NC(=O)c1cc(OCC(F)(F)F)nn1-c1ncccc1Cl [Compound 15, 6-(1-(3-chloropyridin-2-yl)-3-(2,2,2-trifluoroethoxy)-1H-pyrazole-5-carboxamido)-N-(cyanomethyl)-5-methylpyrazolo[1,5-a]pyridine-7-carboxamide]
> 70%: all assays above

CONC(=O)c1c(NC(=O)c2cc(OCC(F)(F)F)nn2-c2ncccc2Cl)c(C)cc2ccnn12 [Compound 16, 6-(1-(3-chloropyridin-2-yl)-3-(2,2,2-trifluoroethoxy)-1H-pyrazole-5-carboxamido)-N-methoxy-5-methylpyrazolo[1,5-a]pyridine-7-carboxamide]
> 70%: all assays above

Cc1cc2ccnn2c(C(=O)NC(C)(C)C)c1NC(=O)c1cc(OCC(F)(F)F)nn1-c1ncccc1Cl [Compound 19, N-(tert-butyl)-6-(1-(3-chloropyridin-2-yl)-3-(2,2,2-trifluoroethoxy)-1H-pyrazole-5-carboxamido)-5-methylpyrazolo[1,5-a]pyridine-7-carboxamide]
> 70%: all assays above

C=CCNC(=O)c1c(NC(=O)c2cc(OCC(F)(F)F)nn2-c2ncccc2Cl)c(C)cc2ccnn12 [Compound 20, N-allyl-6-(1-(3-chloropyridin-2-yl)-3-(2,2,2-trifluoroethoxy)-1H-pyrazole-5-carboxamido)-5-methylpyrazolo[1,5-a]pyridine-7-carboxamide]
> 70%: all assays above

CCCNC(=O)c1c(NC(=O)c2cc(Br)nn2-c2ncccc2Cl)c(C)cc2ccnn12 [Compound 21, 6-(3-bromo-1-(3-chloropyridin-2-yl)-1H-pyrazole-5-carboxamido)-5-methyl-N-propylpyrazolo[1,5-a]pyridine-7-carboxamide]
> 70%: all assays above

Cc1cc2ccnn2c(C(=O)NCCC#N)c1NC(=O)c1cc(Br)nn1-c1ncccc1Cl [Compound 22, 6-(3-bromo-1-(3-chloropyridin-2-yl)-1H-pyrazole-5-carboxamido)-N-(2-cyanoethyl)-5-methylpyrazolo[1,5-a]pyridine-7-carboxamide]
> 70%: all assays above

CONC(=O)c1c(NC(=O)c2cc(Br)nn2-c2ncccc2Cl)c(C)cc2ccnn12 [Compound 24, 6-(3-bromo-1-(3-chloropyridin-2-yl)-1H-pyrazole-5-carboxamido)-N-methoxy-5-methylpyrazolo[1,5-a]pyridine-7-carboxamide]
> 70%: all assays above

CNC(=O)c1c(NC(=O)c2cc(OC)nn2-c2ncccc2Cl)c(C)cc2ccnn12 [Compound 25, 6-(1-(3-chloropyridin-2-yl)-3-methoxy-1H-pyrazole-5-carboxamido)-N,5-dimethylpyrazolo[1,5-a]pyridine-7-carboxamide]
> 70%: all assays above

COc1cc(C(=O)Nc2c(C)cc3ccnn3c2C(=O)NC2CC2)n(-c2ncccc2Cl)n1 [Compound 26, 6-(1-(3-chloropyridin-2-yl)-3-methoxy-1H-pyrazole-5-carboxamido)-N-cyclopropyl-5-methylpyrazolo[1,5-a]pyridine-7-carboxamide]
> 70%: all assays above

COc1cc(C(=O)Nc2c(C)cc3ccnn3c2C(=O)NCC2CC2)n(-c2ncccc2Cl)n1 [Compound 27, 6-(1-(3-chloropyridin-2-yl)-3-methoxy-1H-pyrazole-5-carboxamido)-N-(cyclopropylmethyl)-5-methylpyrazolo[1,5-a]pyridine-7-carboxamide]
> 70%: all assays above

Cc1cc2ccnn2c(C(=O)NCC#N)c1NC(=O)c1cc(Br)nn1-c1ncccc1Cl [Compound 28, 6-(3-bromo-1-(3-chloropyridin-2-yl)-1H-pyrazole-5-carboxamido)-N-(cyanomethyl)-5-methylpyrazolo[1,5-a]pyridine-7-carboxamide]
> 70%: all assays above

CCCNC(=O)c1c(NC(=O)c2cc(OC)nn2-c2ncccc2Cl)c(C)cc2ccnn12 [Compound 29, 6-(1-(3-chloropyridin-2-yl)-3-methoxy-1H-pyrazole-5-carboxamido)-5-methyl-N-propylpyrazolo[1,5-a]pyridine-7-carboxamide]
> 70%: all assays above

COc1cc(C(=O)Nc2c(C)cc3ccnn3c2C(=O)NC(C)(C)C)n(-c2ncccc2Cl)n1 [Compound 30, N-(tert-butyl)-6-(1-(3-chloropyridin-2-yl)-3-methoxy-1H-pyrazole-5-carboxamido)-5-methylpyrazolo[1,5-a]pyridine-7-carboxamide]
> 70%: all assays above

CCNC(=O)c1c(NC(=O)c2cc(OC)nn2-c2ncccc2Cl)c(C)cc2ccnn12 [Compound 31, 6-(1-(3-chloropyridin-2-yl)-3-methoxy-1H-pyrazole-5-carboxamido)-N-ethyl-5-methylpyrazolo[1,5-a]pyridine-7-carboxamide]
> 70%: all assays above

COc1cc(C(=O)Nc2c(C)cc3ccnn3c2C(=O)NC(C)C)n(-c2ncccc2Cl)n1 [Compound 32, 6-(1-(3-chloropyridin-2-yl)-3-methoxy-1H-pyrazole-5-carboxamido)-N-isopropyl-5-methylpyrazolo[1,5-a]pyridine-7-carboxamide]
> 70%: all assays above

COCCNC(=O)c1c(NC(=O)c2cc(OC)nn2-c2ncccc2Cl)c(C)cc2ccnn12 [Compound 33, 6-(1-(3-chloropyridin-2-yl)-3-methoxy-1H-pyrazole-5-carboxamido)-N-(2-methoxyethyl)-5-methylpyrazolo[1,5-a]pyridine-7-carboxamide]
> 70%: all assays above

Cc1cc2ccnn2c(C(=O)NC2COC2)c1NC(=O)c1cc(Br)nn1-c1ncccc1Cl [Compound 35, 6-(3-bromo-1-(3-chloropyridin-2-yl)-1H-pyrazole-5-carboxamido)-5-methyl-N-(oxetan-3-yl)pyrazolo[1,5-a]pyridine-7-carboxamide]
> 70%: all assays above
